Test results taken from patent publication US20190247376A1, “NICOTINIC ACETYLCHOLINE RECEPTOR AGONIST ATTENUATES ILC2-DEPENDENT AIRWAY HYPERREACTIVITY” (University of Southern California, priority 2016, published 2019).

System: human ILC2s
Test: In vitro culture of human ILC2s, IL-5 and IL-13 production
Type: cell-based
Settings: agonist 10 μg mL−1; rh-IL-2, rh-IL-7, rh-IL-33; 24h
Protocol: FIGS. 7A-7E: α7nAChR agonist prevents human ILC2s mediated AHR and allergic. (FIG. 7A) Human ILC2s were purified from PBMCs via FACS and cultured (10^4 cells per mL) in the presence of recombinant human IL-33 (20 ng mL^−1), IL-2 (10 ng mL^−1), and IL-7 (20 ng mL^−1), with or without α7nAChR agonist for 24h. In the right panel, data are presented as means of four individual donors. (FIG. 7B) Human peripheral-blood mononuclear cells were isolated via FACS and cultured in the presence or absence of rh-IL-2 (10 ng mL^−1) and rh-IL-7 (20 ng mL^−1) for 48 hours, then adoptively transferred into Rag2^−/− GC^−/− mice that were intranasally challenged with rm-IL-33 or PBS, with or without α7nAChR agonist (125 μg) on days 1-3. […]
For human peripheral ILC2s, peripheral blood mononuclear cells (PBMCs) were first isolated from human fresh blood by diluting the blood 1:1 in PBS, adding to SepMate™-50 separation tubes (STEMCELL Technologies Inc, Vancouver, Canada) prefilled with 15-mL Lymphoprep™ each (Axis-Shield, Oslo, Norway), and centrifuging at 1200 g for 15 minutes. […] On day 4, lung function was measured and BAL was performed and analyzed.
Murine ILC2s were isolated from BALB/cByJ mice to >95% purity using the FACSARIA III cell sorter. […] Levels of cytokines were measured by ELISA (eBioscience), according to the manufacturer's instructions.

## COc1ccc(/C=C2\CCCN=C2c2cccnc2)c(OC)c1 [GTS-21, 3-[(3E)-3-[(2,4-dimethoxyphenyl)methylidene]-5,6-dihydro-4H-pyridin-2-yl]pyridine]
  IL-5 production by human ILC2s: decreasing
  IL-13 production by human ILC2s: decreasing
